Experimental data as given in patent publication US20190153024A1, “NOVEL SALTS AND POLYMORPHS OF SCY-078” (priority 2015, published 2019).
≈ marks a conversion by molar mass, not a printed value. Blank lines part the entries; values can stand above or below the compound they belong to.

Key:
[1] = Physical and chemical stability of trifluoroacetate Types A and B and HCl Type I for 1, 2, 4 and 8 weeks; format: physicochemical; conditions: 25° C./60% RH, 40° C./75% RH and 60° C.; 8 weeks; listed as Trifluoroacetate Type B
Experimental: High Power Liquid Chromatography (HPLC) Method—An Agilent 1260 HPLC with DAD detector was utilized to test solubility or to test purity and stability. […] System suitability was tested by injecting standard solutions five times in each sample sequence, and the relative standard deviation of the peak areas was less than 2%.
Physical and chemical stability evaluation of trifluoroacetate Type A, trifluoroacetate Type B, and HCl Type I was performed at 25° C./60% RH, 40° C./75% RH and 60° C. for 1, 2, 4 and 8 weeks. In the experiments, approximately 20 mg of solid was placed into a 1.5-mL glass vial. The vials were stored under 25° C./60% RH (uncapped), 40° C./75% RH (uncapped) and 60° C. (capped) conditions for 8 weeks. XRPD analysis was then employed to check the crystalline form of the solid, and HPLC was utilized to determine the purity profile at 1, 2, 4 and 8 weeks. […] The solid form change of trifluoroacetate Type A at 2 and 4 weeks was postulated to the air-exposure when the sample was taken out for XRPD characterization.

[2] = Dynamic Vapor Sorption (DVS) water uptake; format: physicochemical; conditions: for solid form by XRPD after DVS: after DVS experiment
Experimental: Dynamic Vapor Sorption (DVS)—The term “DVS” means the procedure described in below. The relative humidity at 25° C. was calibrated against deliquescence point of LiCl, Mg(NO3)2 and KCl.
The DVS of SCY-078 salts were tested according to the above method, using a 10-20 mg sample size. The DVS was measured using a Surface Measurement Systems (SMS) DVS Intrinsic.

[3] = Kinetic solubility of trifluoroacetate Types A and B and HCl Type I (alternative procedure: SGF, FaSSIF and FeSSIF alternative media, acetate pH 5.5, phosphate pH 6.0 alternative media)
Experimental: An alternative media (“FaSSIF alternative media”) was used to study the trifluoroacetate salts (Type A and B) and the HCl Type I salt. More specifically, the media was prepared by weighing 0.17 g of sodium phosphate monobasic (NaH2PO4, anhydrous), 0.021 g of sodium hydroxide, and 0.31 g of sodium chloride into a 50-mL volumetric flask and was dissolve with approximately 48 mL of purified water. The pH was adjusted to exactly 6.5 using 1 M HCl or 1 M NaOH and diluted to volume with purified water. 0.11 g of SIF powder was then added, stirred and sonicated until all the powder was completely dissolved. The solution was equilibrated for 2 hours at RT before use. The solution can be stored at RT for 48 hours or 4° C. for 7 days and should be equilibrated to RT before use
An alternative media (“FeSSIF alternative media”) was used to study the trifluoroacetate salts (Type A and B) and the HCl Type I salt. More specifically, the media was prepared by transferring 0.41 mL of glacial acid and weighing 0.20 g of sodium hydroxide, 0.59 g of sodium chloride into a 50-mL volumetric flask. This was dissolved with approximately 48 mL of purified water. The pH was adjusted to exactly 5.0 using 1 M HCl or 1 M NaOH and diluted to volume with purified water. 0.56 g of SIF powder was added, stirred and sonicated until all the powder is completely dissolved. The solution can be stored at RT for 48 hours or 4° C. for 7 days and should be equilibrated to RT before use.
Acetate Buffer (pH 5.5) Preparation—The acetate buffer (pH 5.5) used for the trifluoroacetate salts (Type A and B) and the HCl Type I salt was prepared by placing 0.60 g sodium acetate (NaC2H3O2.3H2O) in a 100-mL volumetric flask, adding 3 mL of 2 M acetic acid solution, and then adding purified water to volume.
An alternative media (“phosphate (pH 6.0) alternative media”) was used to study the trifluoroacetate salts (Type A and B) and the HCl Type I salt. More specifically, the media was prepared by dissolving 2.72 g of 0.2 M monobasic potassium phosphate (KH2PO4) in purified water, and diluting with purified water t 100 mL. 0.8 g of 0.2 M sodium hydroxide in purified water was diluted with purified water to 100 mL. Then 50 mL of the 0.2 M monobasic potassium phosphate solution was placed in a 200-mL volumetric flask, 5.6 mL of 0.2 M sodium hydroxide solution was added, and then purified water was added to volume.
The trifluoroacetate salts (Type A and B) and the HCl Type I salt were tested using the following alternative procedure. First, 15 mg, 36 mg or 90 mg solid was weighted into a 4-mL plastic tube, and 3 mL of relevant media was added before leaving the suspension on a rolling incubator (25 r/min). For SCF, 90 mg of solid was used. For FaSSIF, acetate buffer (pH 5.5), and phosphate buffer (pH 6.0), 15 mg solid was used. For FeSSIF, 36 mg of solid was used. 1.0 mL aliquot of the suspension was sampled for centrifugation with the supernatant submitted for HPLC and pH measurement and solid for XRPD characterization at 1 hr, 4 hr and/or 24 hrs.
The solubility of trifluoroacetate Type A, Type B and HCl Type I was measured in SGF at ambient temperature. Approximately 90 mg of solid sample was weighted into a 4-mL centrifuge tube, and 3 mL of SGF buffer was added before leaving the suspension on a rolling incubator (25 r/min). 1.0 mL aliquot of the suspension was sampled for centrifugation (10000 rpm, 3 mins) the supernatant was analyzed by HPLC and pH measurement and solid by XRPD characterization at 1 hr, 4 hr and 24 hrs, respectively.
The solubility of trifluoroacetate Type A, Type B and hydrochloride Type I was measured in the FaSSIF alternative media at ambient temperature. Approximately 15 mg of solid sample was weighted into a 4-mL plastic tube, and 3 mL of the media was added before leaving the suspension on a rolling incubator (25 r/min).

[4] = Approximate solubility in solvents at room temperature; format: physicochemical; conditions: 25 °C, thermodynamic from solid
Experimental: Approximate solubility of SCY-078 salts—The term “approximate solubility” with respect to SCY-078 salts means the procedure described in this paragraph. To conduct each experiment, a sample of a SCY-078 salt (˜2 mg) was added into a 3-mL glass vial. Then a solvent was added step-wise (100 μL per step) into the vials until the solids were dissolved or a total volume of 2 mL was reached.
First, MeOH desolvate (˜2 mg) was added to a 3-mL glass vial. Then the corresponding solvent was added step wise (100 μL) until the solution was visually clear or a total volume of 2 mL was reached.

SMILES: CC(C)[C@@H](C)[C@@]1(C)CC[C@]2(C)[C@H]3CC[C@@H]4[C@@]5(COC[C@]4(C)[C@@H](OC[C@](C)(N)C(C)(C)C)[C@H](n4ncnc4-c4ccncc4)C5)C3=CC[C@@]2(C)[C@@H]1C(=O)O.O=C(O)C(F)(F)F [SCY-078 Trifluoroacetate Type B]
physical and chemical stability [1]: chemically stable, however, physically unstable
water uptake (DVS) ([2]; 25° C./80% RH): 3.4 wt %
solid form by XRPD after DVS [2]: converted to Type A
form change of residual solid in FaSSIF alternative media ([3]; FaSSIF alternative media, ambient temperature, listed as Trifluoroacetate Type B): converted to Type A
form change of residual solid in FeSSIF alternative media ([3]; FeSSIF alternative media, ambient temperature, listed as trifluoroacetate Type B): no form change was observed
form change of residual solid in SGF ([3]; SGF, ambient temperature, listed as Trifluoroacetate Type B): converted to Type A
form change of residual solid in acetate buffer ([3]; acetate buffer pH 5.5, ambient temperature, listed as trifluoroacetate Type B): converted to Type A
form change of residual solid in phosphate (pH 6.0) alternative media ([3]; phosphate (pH 6.0) alternative media, ambient temperature, listed as trifluoroacetate Type B): converted to Type A at 24 hrs

solubility ([4]; organic solvent or mixture, 1,4-Dioxane, RT): > 37 mg/mL
solubility ([4]; organic solvent or mixture, 2-MeTHF, RT): > 25 mg/mL
solubility ([4]; organic solvent or mixture, Acetic Acid, RT): > 25 mg/mL
solubility ([4]; organic solvent or mixture, Acetone, RT): 8.3 to 12.5 mg/mL (≈ 11.4 to 17.1 mM)
solubility ([4]; organic solvent or mixture, CHCl3, RT): > 33 mg/mL
solubility ([4]; organic solvent or mixture, DMA, RT): > 40 mg/mL
solubility ([4]; organic solvent or mixture, DMSO, RT): > 32 mg/mL
solubility ([4]; organic solvent or mixture, EtOAc, RT): > 23 mg/mL
solubility ([4]; organic solvent or mixture, EtOH, RT): 2.6 to 3 mg/mL (≈ 3.56 to 4.11 mM)
solubility ([4]; organic solvent or mixture, Heptane, RT): < 2.2 mg/mL
solubility ([4]; organic solvent or mixture, IPA, RT): 7 to 11 mg/mL (≈ 9.59 to 15.1 mM)
solubility ([4]; organic solvent or mixture, MIBK, RT): > 29 mg/mL
solubility ([4]; organic solvent or mixture, MTBE, RT): > 23 mg/mL
solubility ([4]; organic solvent or mixture, MeOH, RT): 5.4 to 6.3 mg/mL (≈ 7.4 to 8.63 mM)
solubility ([4]; organic solvent or mixture, NMP, RT): > 45 mg/mL
solubility ([4]; organic solvent or mixture, THF, RT): > 23 mg/mL
solubility ([4]; organic solvent or mixture, Toluene, RT): 6.8 to 8.5 mg/mL (≈ 9.31 to 11.6 mM)
solubility ([4]; organic solvent or mixture, iPrOAc, RT): 10.5 to 21 mg/mL (≈ 14.4 to 28.8 mM)
solubility ([4]; acetonitrile (ACN), organic solvent or mixture, ACN, RT): 2.6 to 2.9 mg/mL (≈ 3.56 to 3.97 mM)
solubility ([4]; water (H2O), water, H2O, RT): < 1.9 mg/mL
SMILES: CC(C)[C@@H](C)[C@@]1(C)CC[C@]2(C)[C@H]3CC[C@@H]4[C@@]5(COC[C@]4(C)[C@@H](OC[C@](C)(N)C(C)(C)C)[C@H](n4ncnc4-c4ccncc4)C5)C3=CC[C@@]2(C)[C@@H]1C(=O)O [SCY-078, (1S,4aR,6aS,7R,8R,10aR,10bR,12aR,14R,15R)-15-[[(2R)-2-amino-2,3,3-trimethylbutyl]oxy]-8-[(1R)-1,2-dimethylpropyl]-14-[5-(4-pyridinyl)-1H-1,2,4-triazol-1-yl]-1,6,6a,7,8,9,10,10a,10b,11,12,12a-dodecahydro-1,6a,8,10a-tetramethyl-4H-4a-propano-2H -phenanthro[1,2-c]pyran-7-carboxylic acid]

SMILES: CC(C)[C@@H](C)[C@@]1(C)CC[C@]2(C)[C@H]3CC[C@@H]4[C@@]5(COC[C@]4(C)[C@@H](OC[C@](C)(N)C(C)(C)C)[C@H](n4ncnc4-c4ccncc4)C5)C3=CC[C@@]2(C)[C@@H]1C(=O)O [SCY-078 amorphous freebase]
water uptake (DVS) ([2]; 25° C., 80% RH): ~4.8%
solid form by XRPD after DVS [2]: no form change
